In PubChem BioAssay (NCI) one finds GI50 and TGI data, which are given here for nine compounds.

What all share (assay): NCI-60 cell line screen, 48 h
In experiment [1] the test system is 786-0 renal.
The subject of experiment [2] is U251 CNS.
Experiment [3] concerns OVCAR-4 ovarian.
The test system of experiment [4] is OVCAR-5 ovarian.
The subject of experiment [5] is SK-MEL-28 melanoma.
For experiment [6], the system named is HCC-2998 colon.
Experiment [7] deals with SF-295 CNS.
The test system of experiment [8] is RPMI-8226 leukemia.
Experiment [9] relates to MOLT-4 leukemia.
Experiment [10] relates to K-562 leukemia.

SMILES strings stand for the structures.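 Results reflect a 48-hour exposure of cells in 96-well plates to compound at five concentrations. GI50 is the concentration that inhibits growth by half. TGI is the concentration that stops growth completely.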

As to `CC/C=C\C[C@H](O)C/C=C1/C(=O)C=C[C@@H]1C/C=C\CCCC(N)=O`, the GI50 is 1.94 µM in experiment [1]; 1.5 µM in experiment [2]; 3.45 µM in [3]; 3.89 µM in [4]; 1.93 µM in experiment [5]; 1.98 µM in [6]. Besides, the results for the GI50 in experiment [7] and in [8] were 2.52 µM and 1.14 µM, respectively. Further, the TGI in experiment [1] stood at 3.62 µM; in [2] it was 4.12 µM; in [3], 16.8 µM; in experiment [4], 11.8 µM; in [5], 4.26 µM; in experiment [6] it was 3.7 µM. Further, the TGI in experiment [7] stood at 6.23 µM; in [8], 5.24 µM.

Regarding `Cn1nnnc1[N-]Cc1ccccc1.[Au+].c1ccc([PH+](c2ccccc2)c2ccccc2)cc1`, the GI50 in [1] was 1.71 µM; in experiment [2], 3.41 µM; in experiment [3], 1.99 µM; in [9] it was 1.67 µM; in experiment [4], 14.8 µM; in [5] it was 2.53 µM. The GI50 in experiment [6] was 8.55 µM; in [7] it was 4.45 µM; in experiment [8], 1.23 µM. Also, the TGI worked out at 3.37 µM in experiment [1]; 11.8 µM in experiment [2]; 5.42 µM in experiment [3]; 4.75 µM in [9]; 28.4 µM in [4]; 7.23 µM in experiment [5]. Moreover, the TGI came out at 21.8 µM in [6], 22.8 µM in [7] and 4.37 µM in experiment [8].

`NC(N)=N/N=C/c1c(-c2cc(Cl)sc2Cl)nc2n1CCS2`: the GI50 in experiment [1] was 8.12 µM; in experiment [2] it was 7.61 µM; in experiment [10], 16 µM; in [9] it was 10.4 µM; in experiment [4] it was 7.87 µM; in experiment [6], 5.11 µM. Also, the GI50 was 8.75 µM in experiment [7] and 9.34 µM in experiment [8]. The TGI was 15.6 µM in experiment [1]; 14.4 µM in [2]; 43.7 µM in [10]; 26.8 µM in experiment [9]; 14.7 µM in experiment [4]; 12.6 µM in experiment [6]. Besides, the TGI in experiment [7] was determined as 17.1 µM; in experiment [8] it was 19.4 µM.

Turning to `CC1=C2N3C[C@@H](n4c(=O)n(C)c(=O)n43)C23CCC1n1c(=O)n(C)c(=O)n13`, the TGI in [1], in experiment [10], in experiment [3], in [9], in experiment [4] and in [5] was more than 100 µM in each case. Also, the TGI in experiment [6], in [7] and in [8] was more than 100 µM each time.

In the case of `c1ccc(COc2ccc3[nH]c4c(ncc5[nH]c6ccccc6c54)c3c2)cc1`, the TGI in [1] is 18.5 µM; in experiment [2], 24.4 µM; in experiment [10], 6.11 µM; in [9] it was 31.6 µM; in experiment [4], 33.6 µM; in experiment [5], 31.6 µM. Further, the TGI in experiment [6] was 23.6 µM; in experiment [7] it was 28.2 µM; in experiment [8] it was 8.01 µM.

With `O=C(O)c1[nH]c(C(=O)O)c(CC(F)(F)C(F)(F)C(F)(F)F)c1CC(F)(F)C(F)(F)C(F)(F)F`, the TGI in experiment [1], in [2], in experiment [10], in [3], in [4] and in experiment [5] was more than 100 µM each time. The TGI in experiment [6], in experiment [7] and in [8] was more than 100 µM throughout.

As for `CCC(=O)N1C/C(=C/c2ccc(OC)cc2)C(=O)/C(=C/c2ccc(OC)cc2)C1`, the GI50 in experiment [1] is 1.87 µM; in experiment [2], 1.78 µM; in [10] it was 1.19 µM; in experiment [3], 3.37 µM; in experiment [9] it was 3.31 µM; in experiment [4] it was 1.86 µM. In addition, the GI50 was 1.85 µM in experiment [5], 1.93 µM in experiment [6] and 0.231 µM in experiment [8]. In addition, the TGI in [1] was 3.72 µM; in [2] it was 4.08 µM; in experiment [10], more than 100 µM; in experiment [3] it was more than 100 µM; in [9], more than 100 µM; in experiment [4] it was 3.75 µM. For the same compound, the TGI in experiment [5] was found to be 3.74 µM; in experiment [6] it was 3.42 µM; in [8], 0.748 µM.

For `CC(C)(C)C([O-])=C1C(=O)c2ccccc2C1=O.CC(C)(C)C([O-])=C1C(=O)c2ccccc2C1=O.CC[O-].CC[O-].[Ti+4]`, the GI50 in experiment [1] was 47.2 µM; in experiment [2] it was 41.6 µM; in experiment [10] it was 44.9 µM; in [3], 58.7 µM; in experiment [9], 22.4 µM; in experiment [4], 34.8 µM. Also, the results for the GI50 in experiment [5], in experiment [6] and in [7] were more than 100 µM, 40.3 µM and 28.3 µM, respectively. Also, the TGI in experiment [1] was more than 100 µM; in experiment [2], more than 100 µM; in [10], more than 100 µM; in experiment [3] it was more than 100 µM; in experiment [9], 61.9 µM; in experiment [4] it was more than 100 µM. Moreover, the TGI in [5], in [6] and in experiment [7] was more than 100 µM in each case.

Turning to `Cc1ccc(S(=O)(=O)ON/N=C2/C3OC3[C@@H]3CCCC[C@H]23)cc1` (some centres not stated), the TGI in experiment [1], in experiment [2], in experiment [10], in [3], in experiment [9] and in experiment [5] was more than 100 µM in each case. Also, the TGI in experiment [6], in [7] and in experiment [8] was more than 100 µM in each case.
